# Measured values from the supplement of paper PMC10307832.
# How the values were obtained:
# Assay in all cases: relative viability (nuclei count vs DMSO), 5 days (fraction); higher = more cells survive
# [1] = test system: NCI-H3122
# Procedure, shortened: (§1)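 Cells from lung cancer lines were seeded into 1536-well plates and, one day later, dosed by pin tool. Treatments were either a single drug or a fixed dose of an anchor drug with five library-drug doses (not always all listed) in √10 steps. After 5 days, nuclei were stained in a one-step fixation (final 0.05% Triton X-100, 1% formaldehyde, 1 ug/ml Hoechst) and counted on 4× images, and relative viability is the treated-to-vehicle nuclei ratio, as the median of duplicate plates.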
# [2] = test system: NCI-H1666
# Procedure, shortened: as §1
# [3] = test system: LXF-289
# Procedure, shortened: as §1
# [4] = test system: NCI-H1915
# Procedure, shortened: as §1
# [5] = test system: NCI-H322M
# Procedure, shortened: as §1
# [6] = test system: NCI-H358
# Procedure, shortened: as §1
# [7] = test system: HCC-15
# Procedure, shortened: as §1
# [8] = test system: NCI-H1975
# Procedure, shortened: as §1
# [9] = test system: EMC-BAC-2
# Procedure, shortened: as §1
# [10] = test system: EPLC-272H
# Procedure, shortened: as §1
# [11] = test system: HOP-62
# Procedure, shortened: as §1
# [12] = test system: ABC-1
# Procedure, shortened: as §1
# [13] = test system: NCI-H1993
# Procedure, shortened: as §1
# [14] = test system: CAL-12T
# Procedure, shortened: as §1
# [15] = test system: COR-L 105
# Procedure, shortened: as §1
# [16] = test system: NCI-H2085
# Procedure, shortened: as §1
# [17] = test system: NCI-H2023
# Procedure, shortened: as §1
# [18] = test system: NCI-H2126
# Procedure, shortened: as §1
# [19] = test system: NCI-H1755
# Procedure, shortened: as §1
# [20] = test system: UMC-11
# Procedure, shortened: as §1
# [21] = test system: HCC-78
# Procedure, shortened: as §1
compound,measurement,setting,value
NC(=O)Nc1cc(-c2cccc(F)c2)sc1C(=O)N[C@H]1CCCNC1 [AZD7762] + CS(=O)(=O)CCNCc1ccc(-c2ccc3ncnc(Nc4ccc(OCc5cccc(F)c5)c(Cl)c4)c3c2)o1 [Lapatinib] (partner 2 µM),relative viability,[1]; first compound 0.01 µM,0.978
same,relative viability,[1]; first compound 0.03162 µM,1.06
same,relative viability,[1]; first compound 0.1 µM,1.03
same,relative viability,[1]; first compound 0.3162 µM,0.907
same,relative viability,[1]; first compound 1 µM,1.09
same,relative viability,[2]; first compound 0.01 µM,0.671
same,relative viability,[2]; first compound 0.03162 µM,0.821
same,relative viability,[2]; first compound 0.1 µM,0.73
same,relative viability,[2]; first compound 0.3162 µM,0.629
same,relative viability,[2]; first compound 1 µM,0.708
same,relative viability,[3]; first compound 0.01 µM,0.906
same,relative viability,[3]; first compound 0.03162 µM,0.909
same,relative viability,[3]; first compound 0.1 µM,0.973
same,relative viability,[3]; first compound 0.3162 µM,0.912
same,relative viability,[3]; first compound 1 µM,0.983
same,relative viability,[4]; first compound 0.01 µM,1
same,relative viability,[4]; first compound 0.03162 µM,1
same,relative viability,[4]; first compound 0.1 µM,0.943
same,relative viability,[4]; first compound 0.3162 µM,0.909
same,relative viability,[4]; first compound 1 µM,0.933
same,relative viability,[5]; first compound 0.01 µM,0.627
same,relative viability,[5]; first compound 0.03162 µM,0.675
same,relative viability,[5]; first compound 0.1 µM,0.532
same,relative viability,[5]; first compound 0.3162 µM,0.535
same,relative viability,[5]; first compound 1 µM,0.456
same,relative viability,[6]; first compound 0.01 µM,0.478
same,relative viability,[6]; first compound 0.03162 µM,0.537
same,relative viability,[6]; first compound 0.1 µM,0.497
same,relative viability,[6]; first compound 0.3162 µM,0.451
same,relative viability,[6]; first compound 1 µM,0.327
same,relative viability,[7]; first compound 0.01 µM,0.842
same,relative viability,[7]; first compound 0.03162 µM,0.823
same,relative viability,[7]; first compound 0.1 µM,0.807
same,relative viability,[7]; first compound 0.3162 µM,0.782
same,relative viability,[7]; first compound 1 µM,0.907
same,relative viability,[8]; first compound 0.01 µM,0.89
same,relative viability,[8]; first compound 0.03162 µM,0.831
same,relative viability,[8]; first compound 0.1 µM,0.776
same,relative viability,[8]; first compound 0.3162 µM,0.639
same,relative viability,[8]; first compound 1 µM,0.398
same,relative viability,[9]; first compound 0.01 µM,0.908
same,relative viability,[9]; first compound 0.03162 µM,0.929
same,relative viability,[9]; first compound 0.1 µM,0.919
same,relative viability,[9]; first compound 0.3162 µM,0.91
same,relative viability,[9]; first compound 1 µM,0.894
same,relative viability,[10]; first compound 0.01 µM,0.875
same,relative viability,[10]; first compound 0.03162 µM,1.19
same,relative viability,[10]; first compound 0.1 µM,0.846
same,relative viability,[10]; first compound 0.3162 µM,0.967
same,relative viability,[10]; first compound 1 µM,0.912
same,relative viability,[11]; first compound 0.01 µM,0.993
same,relative viability,[11]; first compound 0.03162 µM,1.06
same,relative viability,[11]; first compound 0.1 µM,1.27
same,relative viability,[11]; first compound 0.3162 µM,0.989
same,relative viability,[11]; first compound 1 µM,0.565
same,relative viability,[12]; first compound 0.01 µM,1.46
same,relative viability,[12]; first compound 0.03162 µM,1.33
same,relative viability,[12]; first compound 0.1 µM,0.983
same,relative viability,[12]; first compound 0.3162 µM,1.2
same,relative viability,[12]; first compound 1 µM,0.981
same,relative viability,[13]; first compound 0.01 µM,0.791
same,relative viability,[13]; first compound 0.03162 µM,0.789
same,relative viability,[13]; first compound 0.1 µM,0.664
same,relative viability,[13]; first compound 0.3162 µM,0.89
same,relative viability,[13]; first compound 1 µM,0.793
same,relative viability,[14]; first compound 0.01 µM,0.781
same,relative viability,[14]; first compound 0.03162 µM,0.649
same,relative viability,[14]; first compound 0.1 µM,0.649
same,relative viability,[14]; first compound 0.3162 µM,0.703
same,relative viability,[14]; first compound 1 µM,0.314
same,relative viability,[15]; first compound 0.01 µM,0.413
same,relative viability,[15]; first compound 0.03162 µM,0.353
same,relative viability,[15]; first compound 0.1 µM,0.254
same,relative viability,[15]; first compound 0.3162 µM,0.332
same,relative viability,[15]; first compound 1 µM,0.282
same,relative viability,[16]; first compound 0.01 µM,0.804
same,relative viability,[16]; first compound 0.03162 µM,0.878
same,relative viability,[16]; first compound 0.1 µM,0.873
same,relative viability,[16]; first compound 0.3162 µM,0.78
same,relative viability,[16]; first compound 1 µM,0.6
same,relative viability,[17]; first compound 0.01 µM,0.601
same,relative viability,[17]; first compound 0.03162 µM,0.758
same,relative viability,[17]; first compound 0.1 µM,0.366
same,relative viability,[17]; first compound 0.3162 µM,0.198
same,relative viability,[17]; first compound 1 µM,0.102
same,relative viability,[18]; first compound 0.01 µM,0.774
same,relative viability,[18]; first compound 0.03162 µM,0.82
same,relative viability,[18]; first compound 0.1 µM,0.834
same,relative viability,[18]; first compound 0.3162 µM,0.803
same,relative viability,[18]; first compound 1 µM,0.821
same,relative viability,[19]; first compound 0.01 µM,1.07
same,relative viability,[19]; first compound 0.03162 µM,1.1
same,relative viability,[19]; first compound 0.1 µM,1.17
same,relative viability,[19]; first compound 0.3162 µM,0.924
same,relative viability,[19]; first compound 1 µM,0.364
same,relative viability,[20]; first compound 0.01 µM,0.936
same,relative viability,[20]; first compound 0.03162 µM,1.01
same,relative viability,[20]; first compound 0.1 µM,0.871
same,relative viability,[20]; first compound 0.3162 µM,0.743
same,relative viability,[20]; first compound 1 µM,0.398
same,relative viability,[21]; first compound 0.01 µM,0.863
same,relative viability,[21]; first compound 0.03162 µM,0.791
same,relative viability,[21]; first compound 0.1 µM,0.842
same,relative viability,[21]; first compound 0.3162 µM,0.653
same,relative viability,[21]; first compound 1 µM,0.304
